Data reported in patent US20250346575A1, “ISOINDOLINONE DERIVATIVE HAVING GLUTARIMIDE MOTHER NUCLEUS, AND USE THEREOF” (KOREA RESEARCH INSTITUTE OF CHEMICAL TECHNOLOGY, priority 2021, published 2025).

Legend:
[1] = system: NCI-H1155 (lung cancer cells); assay: CytoX cell viability assay, NCI-H1155; assay type: cell-based; conditions: for viability at 0.01 µM / viability at 0.5 µM: Homo sapiens, NCI-H1155; for cytotoxic activity against cancer cells, H1155 cells (in words): (6+6) bicyclic heteroaryl compared to (6+5) bicyclic heteroaryl (Compounds 56-58 and 62-70)
Description: The survival rate of NCI-H1155 (lung cancer cells) was measured using the CytoX cell viability assay kit (LPS solution, #CYT3000). NCI-H1155 cells were inoculated into 12-well plates. Afterwards, the cells were treated with each compound of the present disclosure and a comparative substance (CC-90009) at concentrations of 10 nM and 500 nM for 72 hours. Then, CytoX solution was added to the cells, incubated for one hour, and the absorbance of each well was read at 450 nm using a microplate reader to calculate the % viability, and the measurements are summarized in Table 2

Cancer cells (KG-1) = assay: Cytotoxicity assay, WST-1, KG-1; assay type: cell-based; conditions: Homo sapiens; KG-1 cells, 72 hours, WST-1
Description: To evaluate the effect of the compounds of the present disclosure on cancer cells, a cytotoxicity assay was conducted as follows.
Cancer cells (KG-1) were seeded at a concentration of 10,000 cells per well into a 96-well plate. Then, the cells were treated with predetermined concentrations of compounds of the Examples and comparative substances (comparative compounds 1, 2, 3). After 72 hours, the cells were incubated with WST-1 reagent for one hour. Then, absorbance was measured at 450 nm using a spectramax spectrophotometer to assess the degree of cancer cell apoptosis. The IC50 (μM) values were calculated using the measured values with the GraphPad Prism program and the measurements are summarized in Table 1.

O=C1CCC(N2Cc3cc(CNC(=O)C(F)(F)c4ccc(Cl)cc4)ccc3C2=O)C(=O)N1 (stereo not drawn) [CC-90009, reference compound]
NCI-H1155 (% viability) at 10 nM ([1]; 10 nM, 72 hours): 85.0%
NCI-H1155 (% viability) at 500 nM ([1]; 500 nM, 72 hours): 23.5%

O=C1CCC(N2Cc3cc(CNC(=O)c4cc5ccccc5cn4)ccc3C2=O)C(=O)N1 (stereo not drawn) [Comparative Compound 1, N-((2-(2,6-Dioxopiperidin-3-yl)-1-oxoisoindolin-5-yl)methyl)isoquinoline-3-carboxamide, reference compound]
IC50 (Cancer cells (KG-1)): 10 to 50 µM

O=C1CCC(N2Cc3cc(CNC(=O)c4cnc5ccccc5n4)ccc3C2=O)C(=O)N1 (stereo not drawn) [Comparative Compound 2, N-((2-(2,6-Dioxopiperidin-3-yl)-1-oxoisoindolin-5-yl)methyl)quinoxaline-2-carboxamide, reference compound]
IC50 (Cancer cells (KG-1)): 10 to 50 µM

O=C1CCC(N2Cc3cc(CNC(=O)c4cc5ccccc5o4)ccc3C2=O)C(=O)N1 (stereo not drawn) [Compound 56, N-((2-(2,6-Dioxopiperidin-3-yl)-1-oxoisoindolin-5-yl)methyl)benzofuran-2-carboxamide]
viability at 0.01 µM ([1]; 10 nM, 72 hours): 29.8%
viability at 0.5 µM ([1]; 500 nM, 72 hours): 5.94%

COc1ccc2[nH]c(C(=O)NCc3ccc4c(c3)CN(C3CCC(=O)NC3=O)C4=O)cc2c1 (stereo not drawn) [Compound 57, N-((2-(2,6-Dioxopiperidin-3-yl)-1-oxoisoindolin-5-yl)methyl)-5-methoxy-1H-indole-2-carboxamide]
viability at 0.01 µM ([1]; 10 nM, 72 hours): 83.8%
viability at 0.5 µM ([1]; 500 nM, 72 hours): 21.2%

O=C1CCC(N2Cc3cc(CNC(=O)c4cc5ccccc5s4)ccc3C2=O)C(=O)N1 (stereo not drawn) [Compound 58, N-((2-(2,6-Dioxopiperidin-3-yl)-1-oxoisoindolin-5-yl)methyl)benzo[b]thiophene-2-carboxamide]
viability at 0.01 µM ([1]; 10 nM, 72 hours): 4.31%
viability at 0.5 µM ([1]; 500 nM, 72 hours): 2.96%

O=C1CCC(N2Cc3cc(CNC(=O)c4cnc5cc(Cl)ccc5c4O)ccc3C2=O)C(=O)N1 (stereo not drawn) [Compound 59, 7-chloro-N-((2-(2,6-dioxopiperidin-3-yl)-1-oxoisoindolin-5-yl)methyl)-4-hydroxyquinoline-3-carboxamide]
cytotoxic activity against cancer cells, H1155 cells (in words) [1]: less cytotoxic activity
viability at 0.01 µM ([1]; 10 nM, 72 hours): 102%
viability at 0.5 µM ([1]; 500 nM, 72 hours): 40.1%

O=C1CCC(N2Cc3cc(CNC(=O)c4cc5ccccc5oc4=O)ccc3C2=O)C(=O)N1 (stereo not drawn) [Compound 60, N-((2-(2,6-Dioxopiperidin-3-yl)-1-oxoisoindolin-5-yl)methyl)-2-oxo-2H-cromene-3-carboxamide]
cytotoxic activity against cancer cells, H1155 cells (in words) [1]: less cytotoxic activity
viability at 0.01 µM ([1]; 10 nM, 72 hours): 82%
viability at 0.5 µM ([1]; 500 nM, 72 hours): 22.3%

O=C1CCC(N2Cc3cc(CNC(=O)c4cnnc5ccccc45)ccc3C2=O)C(=O)N1 (stereo not drawn) [Compound 61, N-((2-(2,6-Dioxopiperidin-3-yl)-1-oxoisoindolin-5-yl)methyl)cinnoline-4-carboxamide]
cytotoxic activity against cancer cells, H1155 cells (in words) [1]: less cytotoxic activity
viability at 0.01 µM ([1]; 10 nM, 72 hours): 96.8%
viability at 0.5 µM ([1]; 500 nM, 72 hours): 87.2%

Cc1c(C(=O)NCc2ccc3c(c2)CN(C2CCC(=O)NC2=O)C3=O)nn(CC(C)C)c1-c1ccc(Cl)cc1 (stereo not drawn) [Compound 62, 5-(4-Chlorophenyl)-N-((2-(2,6-dioxopiperidin-3-yl)-1-oxoisoindolin-5-yl)methyl)-1-isobutyl-4-methyl-1H-pyrazole-3-carboxamide]
viability at 0.01 µM ([1]; 10 nM, 72 hours): 18.9%
viability at 0.5 µM ([1]; 500 nM, 72 hours): 9.56%

COc1ccc2sc(C(=O)NCc3ccc4c(c3)CN(C3CCC(=O)NC3=O)C4=O)cc2c1 (stereo not drawn) [Compound 65, N-((2-(2,6-Dioxopiperidin-3-yl)-1-oxoisoindolin-5-yl)methyl)-5-methoxybenzo[b]thiophene-2-carboxamide]
viability at 0.01 µM ([1]; 10 nM, 72 hours): 31.7%
viability at 0.5 µM ([1]; 500 nM, 72 hours): 23.4%

Cc1ccc2cc(C(=O)NCc3ccc4c(c3)CN(C3CCC(=O)NC3=O)C4=O)sc2c1 (stereo not drawn) [Compound 66, N-((2-(2,6-Dioxopiperidin-3-yl)-1-oxoisoindolin-5-yl)methyl)-6-methylbenzo[b]thiophene-2-carboxamide]
viability at 0.01 µM ([1]; 10 nM, 72 hours): 32.1%
viability at 0.5 µM ([1]; 500 nM, 72 hours): 26.1%

Cc1ccc2c(Cl)c(C(=O)NCc3ccc4c(c3)CN(C3CCC(=O)NC3=O)C4=O)sc2c1 (stereo not drawn) [Compound 67, 3-Chloro-N-((2-(2,6-dioxopiperidin-3-yl)-1-oxoisoindolin-5-yl)methyl)-6-methylbenzo[b]thiophene-2-carboxamide]
viability at 0.01 µM ([1]; 10 nM, 72 hours): 26.1%
viability at 0.5 µM ([1]; 500 nM, 72 hours): 24.4%

COc1ccc2c(Cl)c(C(=O)NCc3ccc4c(c3)CN(C3CCC(=O)NC3=O)C4=O)sc2c1 (stereo not drawn) [Compound 68, 3-Chloro-N-((2-(2,6-dioxopiperidin-3-yl)-1-oxoisoindolin-5-yl)methyl)-6-methoxybenzo[b]thiophene-2-carboxamide]
viability at 0.01 µM ([1]; 10 nM, 72 hours): 29.9%
viability at 0.5 µM ([1]; 500 nM, 72 hours): 26.4%

O=C1CCC(N2Cc3cc(CNC(=O)c4cc5cccc(C(F)(F)F)c5s4)ccc3C2=O)C(=O)N1 (stereo not drawn) [Compound 71, N-((2-(2,6-Dioxopiperidin-3-yl)-1-oxoisoindolin-5-yl)methyl)-7-(trifluoromethyl)benzo[b]thiophene-2-carboxamide]
viability at 0.01 µM ([1]; 10 nM, 72 hours): 24.2%
viability at 0.5 µM ([1]; 500 nM, 72 hours): 24.4%

O=C1CCC(N2Cc3cc(CNC(=O)c4sc5cc(C(F)(F)F)ccc5c4Cl)ccc3C2=O)C(=O)N1 (stereo not drawn) [Compound 72, 3-chloro-N-((2-(2,6-dioxopiperidin-3-yl)-1-oxoisoindolin-5-yl)methyl)-6-(trifluoromethyl)benzo[b]thiophene-2-carboxamide]
viability at 0.01 µM ([1]; 10 nM, 72 hours): 33%
viability at 0.5 µM ([1]; 500 nM, 72 hours): 24.6%

O=C1CCC(N2Cc3cc(CNC(=O)c4cc5cc(C(F)(F)F)ccc5s4)ccc3C2=O)C(=O)N1 (stereo not drawn) [Compound 73, N-((2-(2,6-Dioxopiperidin-3-yl)-1-oxoisoindolin-5-yl)methyl)-5-(trifluoromethyl)benzo[b]thiophene-2-carboxamide]
viability at 0.01 µM ([1]; 10 nM, 72 hours): 40.4%
viability at 0.5 µM ([1]; 500 nM, 72 hours): 26%

COc1cccc2sc(C(=O)NCc3ccc4c(c3)CN(C3CCC(=O)NC3=O)C4=O)cc12 (stereo not drawn) [Compound 74, N-((2-(2,6-Dioxopiperidin-3-yl)-1-oxoisoindolin-5-yl)methyl)-4-methoxybenzo[b]thiophene-2-carboxamide]
viability at 0.01 µM ([1]; 10 nM, 72 hours): 26.6%
viability at 0.5 µM ([1]; 500 nM, 72 hours): 25.4%

Cc1c(C(=O)NCc2ccc3c(c2)CN(C2CCC(=O)NC2=O)C3=O)sc2ccc(Cl)cc12 (stereo not drawn) [Compound 75, 5-Chloro-N-((2-(2,6-dioxopiperidin-3-yl)-1-oxoisoindolin-5-yl)methyl)-3-methylbenzo[b]thiophene-2-carboxamide]
viability at 0.01 µM ([1]; 10 nM, 72 hours): 32.1%
viability at 0.5 µM ([1]; 500 nM, 72 hours): 24.5%

Cc1c(C(=O)NCc2ccc3c(c2)CN(C2CCC(=O)NC2=O)C3=O)sc2ccccc12 (stereo not drawn) [Compound 76, N-((2-(2,6-Dioxopiperidin-3-yl)-1-oxoisoindolin-5-yl)methyl)-3-methylbenzo[b]thiophene-2-carboxamide]
viability at 0.01 µM ([1]; 10 nM, 72 hours): 28%
viability at 0.5 µM ([1]; 500 nM, 72 hours): 26.3%

Cc1c(C(=O)NCc2ccc3c(c2)CN(C2CCC(=O)NC2=O)C3=O)sc2cccc(Cl)c12 (stereo not drawn) [Compound 77, 4-Chloro-N-((2-(2,6-dioxopiperidin-3-yl)-1-oxoisoindolin-5-yl)methyl)-3-methylbenzo[b]thiophene-2-carboxamide]
viability at 0.01 µM ([1]; 10 nM, 72 hours): 24%
viability at 0.5 µM ([1]; 500 nM, 72 hours): 24%

Cc1c(C(=O)NCc2ccc3c(c2)CN(C2CCC(=O)NC2=O)C3=O)sc2c(Cl)cccc12 (stereo not drawn) [Compound 78, 7-Chloro-N-((2-(2,6-dioxopiperidin-3-yl)-1-oxoisoindolin-5-yl)methyl)-3-methylbenzo[b]thiophene-2-carboxamide]
viability at 0.01 µM ([1]; 10 nM, 72 hours): 15.7%
viability at 0.5 µM ([1]; 500 nM, 72 hours): 15.6%

Cc1c(C(=O)NCc2ccc3c(c2)CN(C2CCC(=O)NC2=O)C3=O)sc2cccc(F)c12 (stereo not drawn) [Compound 79, N-((2-(2,6-Dioxopiperidin-3-yl)-1-oxoisoindolin-5-yl)methyl)-4-fluoro-3-methylbenzo[b]thiophene-2-carboxamide]
viability at 0.01 µM ([1]; 10 nM, 72 hours): 16.2%
viability at 0.5 µM ([1]; 500 nM, 72 hours): 15.2%

COc1cccc2cc(C(=O)NCc3ccc4c(c3)CN(C3CCC(=O)NC3=O)C4=O)oc12 (stereo not drawn) [Compound 82, N-((2-(2,6-Dioxopiperidin-3-yl)-1-oxoisoindolin-5-yl)methyl)-7-methoxybenzofuran-2-carboxamide]
viability at 0.01 µM ([1]; 10 nM, 72 hours): 39%
viability at 0.5 µM ([1]; 500 nM, 72 hours): 17.6%

COc1ccc2cc(C(=O)NCc3ccc4c(c3)CN(C3CCC(=O)NC3=O)C4=O)oc2c1 (stereo not drawn) [Compound 83, N-((2-(2,6-Dioxopiperidin-3-yl)-1-oxoisoindolin-5-yl)methyl)-6-methoxybenzofuran-2-carboxamide]
viability at 0.01 µM ([1]; 10 nM, 72 hours): 26.1%
viability at 0.5 µM ([1]; 500 nM, 72 hours): 15.9%

Cc1ccc2c(C)c(C(=O)NCc3ccc4c(c3)CN(C3CCC(=O)NC3=O)C4=O)oc2c1 (stereo not drawn) [Compound 84, N-((2-(2,6-Dioxopiperidin-3-yl)-1-oxoisoindolin-5-yl)methyl)-3,6-dimethylbenzofuran-2-carboxamide]
viability at 0.01 µM ([1]; 10 nM, 72 hours): 28.9%
viability at 0.5 µM ([1]; 500 nM, 72 hours): 18.2%

Cc1c(C(=O)NCc2ccc3c(c2)CN(C2CCC(=O)NC2=O)C3=O)oc2ccc(Br)cc12 (stereo not drawn) [Compound 85, 5-bromo-N-((2-(2,6-dioxopiperidin-3-yl)-1-oxoisoindolin-5-yl)methyl)-3-methylbenzofuran-2-carboxamide]
viability at 0.01 µM ([1]; 10 nM, 72 hours): 36.6%
viability at 0.5 µM ([1]; 500 nM, 72 hours): 18.6%

O=C1CCC(N2Cc3cc(CNC(=O)c4cc5c(ccc6ccccc65)o4)ccc3C2=O)C(=O)N1 (stereo not drawn) [Compound 86, N-((2-(2,6-Dioxopiperidin-3-yl)-1-oxoisoindolin-5-yl)methyl)naphtho[2,1-b]furan-2-carboxamide]
viability at 0.01 µM ([1]; 10 nM, 72 hours): 14.7%
viability at 0.5 µM ([1]; 500 nM, 72 hours): 14.7%
